Test results published in ChEMBL document CHEMBL1201862, “PubChem BioAssay data set” (2004).
The source made the active and inactive calls.

Legend:
[1] = Vero cell cytotoxicity, dose response, cytotoxicity control for Vif-APOBEC3G degradation inhibitor project, Vero cells (AID 1117358); assay type: functional; settings: Human immunodeficiency virus 1, Vero
[2] = Luminescence Cell-Based Dose Confirmation HTS to Identify Inhibitors of Polyadenylation.; assay type: functional
[3] = system: INS1; assay: beta cell apoptosis inhibitors, cytokine rescue, dose response, luminescence, retest (AID 449756); assay type: functional, cell-based; settings: Rattus norvegicus, INS1;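 also: cell death triggered by IL-1 beta plus TNF-alpha plus IFN-gamma mixture; protective hits raise ATP signal compared with cytokine alone wells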
[4] = control 3'UTR Renilla luciferase suppression, dose response, counter-screen for Shn3 inhibitor project, cell-based, Clone20-Shn3RL, cherry-picked (AID 624133); assay type: functional
[5] = HepG2 cell cytotoxicity, dose response, cytotoxicity control for Shn3 inhibitor project, CellTiter-Glo, cherry-picked (AID 624134); assay type: functional, cell-based
[6] = Shn3 3'UTR reporter inhibitors, dose response, cell-based, Clone20 osteoblasts, firefly luciferase, cherry-picked (AID 624132); assay type: functional;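 also: firefly luciferase luminescence from reporter carrying the Shn3 3'UTR in osteoblasts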
[7] = target: Heat shock protein HSP 90-alpha (Homo sapiens, UniProt P07900); assay: Luminescence-based dose response biochemical high throughput screening assay for inhibitors of the Heat Shock Protein 90 (HSP90). [Related pubchem assays: 1831 (Summary AID.), 1846 (Confirmation screen.), 1789 (Primary screen.)]
[8] = target: T1, Sphingosine 1-phosphate receptor 2 (Homo sapiens, UniProt O95136); assay: Dose Response Cell-Based Assay for Agonists of the Sphingosine 1-Phosphate Receptor 2 (S1P2): Purchased Analogues. [Related pubchem assays: 1192, 373, 439 ]; assay type: functional
T1 sequence (O95136 whole entry): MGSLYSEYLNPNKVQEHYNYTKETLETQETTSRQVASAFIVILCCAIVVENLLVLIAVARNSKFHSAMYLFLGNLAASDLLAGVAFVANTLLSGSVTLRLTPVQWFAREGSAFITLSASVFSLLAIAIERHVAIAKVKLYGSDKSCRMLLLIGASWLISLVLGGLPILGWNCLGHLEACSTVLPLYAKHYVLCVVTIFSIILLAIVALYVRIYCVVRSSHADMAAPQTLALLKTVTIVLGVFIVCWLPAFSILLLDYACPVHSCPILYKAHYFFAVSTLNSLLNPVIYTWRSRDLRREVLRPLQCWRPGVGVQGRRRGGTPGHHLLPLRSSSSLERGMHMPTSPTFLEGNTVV

[9] = target: T2, Sphingosine 1-phosphate receptor 3 (Homo sapiens, UniProt Q99500); assay: Dose Response Cell-Based Assay for Agonists of the Sphingosine 1-Phosphate Receptor 3 (S1P3): Purchased Analogues. [Related pubchem assays: 373, 439 ]; assay type: functional
T2 sequence (Q99500 whole entry): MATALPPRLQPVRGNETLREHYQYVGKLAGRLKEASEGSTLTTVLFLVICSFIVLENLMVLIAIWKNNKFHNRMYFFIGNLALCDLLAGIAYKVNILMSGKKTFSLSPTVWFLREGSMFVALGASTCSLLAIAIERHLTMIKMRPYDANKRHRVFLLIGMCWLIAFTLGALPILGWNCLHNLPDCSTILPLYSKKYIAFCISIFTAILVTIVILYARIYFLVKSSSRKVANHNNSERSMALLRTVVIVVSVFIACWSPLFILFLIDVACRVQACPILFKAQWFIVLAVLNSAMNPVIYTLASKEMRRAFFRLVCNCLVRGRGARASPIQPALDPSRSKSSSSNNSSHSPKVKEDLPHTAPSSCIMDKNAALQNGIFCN

[10] = target: Sphingosine 1-phosphate receptor 1 (Homo sapiens, UniProt P21453); assay: Dose Response Cell-Based Assay for Agonists of the Sphingosine 1-Phosphate Receptor 1 (S1P1): Purchased Analogues. [Related pubchem assays: 1192, 373, 439 ]; assay type: functional
Sphingosine 1-phosphate receptor 1, sequence (P21453 whole entry): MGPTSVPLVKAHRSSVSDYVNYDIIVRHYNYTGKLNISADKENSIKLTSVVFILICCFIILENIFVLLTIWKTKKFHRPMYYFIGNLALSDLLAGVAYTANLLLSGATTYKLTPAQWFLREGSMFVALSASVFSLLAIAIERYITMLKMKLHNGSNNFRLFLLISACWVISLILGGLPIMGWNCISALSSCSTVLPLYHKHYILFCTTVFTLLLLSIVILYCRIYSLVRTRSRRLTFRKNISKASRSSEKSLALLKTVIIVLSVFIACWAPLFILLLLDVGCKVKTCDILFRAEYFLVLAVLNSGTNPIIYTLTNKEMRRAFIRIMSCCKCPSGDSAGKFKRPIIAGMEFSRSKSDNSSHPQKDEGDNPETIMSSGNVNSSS

[11] = target: Aryl hydrocarbon receptor (Homo sapiens, UniProt P35869); assay: Luminescence-based cell-based high throughput dose response assay for activators of the Aryl Hydrocarbon Receptor (AHR). [Related pubchem assays: 2796 (Primary screen (AHR activators in singlicate)), 2845 (Confirmation screen (AHR activators in triplicate)), 434939 (Counterscreen (PXR activators in triplicate)), 2804 (Summary (AHR activators))]; assay type: ADME
Aryl hydrocarbon receptor, sequence (P35869 whole entry): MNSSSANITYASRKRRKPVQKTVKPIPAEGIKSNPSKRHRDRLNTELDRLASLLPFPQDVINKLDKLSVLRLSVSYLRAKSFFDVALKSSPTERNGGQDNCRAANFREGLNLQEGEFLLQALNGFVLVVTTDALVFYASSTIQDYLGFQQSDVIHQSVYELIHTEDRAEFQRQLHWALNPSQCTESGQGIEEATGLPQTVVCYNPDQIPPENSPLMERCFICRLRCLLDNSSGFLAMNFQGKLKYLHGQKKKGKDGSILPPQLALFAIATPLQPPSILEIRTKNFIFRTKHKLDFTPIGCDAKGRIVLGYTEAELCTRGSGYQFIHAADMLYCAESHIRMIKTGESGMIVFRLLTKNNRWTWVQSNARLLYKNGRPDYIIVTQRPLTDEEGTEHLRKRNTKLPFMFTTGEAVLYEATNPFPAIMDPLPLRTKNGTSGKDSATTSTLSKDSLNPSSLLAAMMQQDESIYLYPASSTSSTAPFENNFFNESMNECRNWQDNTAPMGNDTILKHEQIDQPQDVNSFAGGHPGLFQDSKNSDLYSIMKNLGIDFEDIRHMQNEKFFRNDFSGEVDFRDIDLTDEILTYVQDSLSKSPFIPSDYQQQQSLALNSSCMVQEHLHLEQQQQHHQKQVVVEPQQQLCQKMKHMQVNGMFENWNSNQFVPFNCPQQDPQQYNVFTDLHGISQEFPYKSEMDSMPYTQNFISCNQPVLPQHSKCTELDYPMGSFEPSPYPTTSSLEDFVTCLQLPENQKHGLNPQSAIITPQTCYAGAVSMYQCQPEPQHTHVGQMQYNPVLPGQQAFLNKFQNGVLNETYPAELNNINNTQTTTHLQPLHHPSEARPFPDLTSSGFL

[12] = target: T1, Sphingosine 1-phosphate receptor 2; assay: Dose Response Cell Based Assay for Agonists of the S1P2 Receptor. [Related pubchem assays: 729, 736, 843 ]; assay type: functional
[13] = cytotoxicity toward NIH3T3 fibroblasts, dose response, counter-screen, cell-based, ATP luminescence, mouse fibroblasts (AID 2010); assay type: functional;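 also: cells exposed to compound for about 90 hours before reading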
[14] = inhibitors of intracellular T. cruzi replication, confirmation, NIH3T3 host cells, beta-gal luminescence (AID 2044); assay type: functional, cell-based;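 also: intracellular parasites grown in NIH/3T3 mouse fibroblasts as host cells; luminescent beta-galactosidase reporter signal from transgenic T. cruzi replicating inside host cells; inhibitors lower the luminescence signal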
[15] = target: 5-hydroxytryptamine receptor 1E (Homo sapiens, UniProt P28566); assay: Counterscreen assay for S1P3 antagonists: Dose response cell-based high throughput screening assay to identify antagonists of the 5-Hydroxytryptamine Receptor Subtype 1E (5HT1E). [Related pubchem assays: 1429, 485 ]; assay type: functional
5-hydroxytryptamine receptor 1E, sequence (P28566 whole entry): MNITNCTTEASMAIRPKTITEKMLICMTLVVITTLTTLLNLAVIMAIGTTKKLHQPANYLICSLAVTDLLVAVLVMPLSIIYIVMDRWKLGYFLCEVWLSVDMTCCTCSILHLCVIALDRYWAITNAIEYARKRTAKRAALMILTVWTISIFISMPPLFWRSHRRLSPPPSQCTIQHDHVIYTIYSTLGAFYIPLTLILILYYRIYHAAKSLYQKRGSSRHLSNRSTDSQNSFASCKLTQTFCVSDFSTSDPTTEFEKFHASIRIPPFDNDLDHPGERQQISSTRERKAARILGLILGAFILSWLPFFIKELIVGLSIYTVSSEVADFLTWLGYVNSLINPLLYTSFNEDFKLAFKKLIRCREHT

[16] = target: T2, Sphingosine 1-phosphate receptor 3; assay: Dose response cell-based high throughput screening assay for antagonists of the Sphingosine 1-Phosphate Receptor 3 (S1P3). [Related pubchem assays: 1429, 485 ]; assay type: functional

With Cc1ccc(S(=O)(=O)NCCCOC(=O)Nc2ccncc2)cc1 the CC50 [1] was > 40 µM (active).

In the case of COc1ccc(CNc2ncnc3sccc23)cc1, the EC50 [2] is reported as > 120 µM (not active), the AC50 [3] is reported as 5.39 µM (active) and the AC50 [4] is reported as 8.63 µM (active). For the same molecule, the AC50 [5] was 36 µM (active) and the AC50 [6] was 1.66 µM (active).

In the case of COC(=O)c1ccccc1OCCCOc1ccc(C=O)cc1OC, the IC50 [7] is reported as 314 nM (active).

With O=C(CSc1nnc(-c2ccco2)o1)N(C1CCCCC1)C1CCCCC1 the EC50 [8] was > 10 µM (not active), the EC50 [9] was 110 nM (active) and the EC50 [10] was 278 nM (active).

With COc1ccc(NC(=O)c2cccc3c(Br)cccc23)cc1 the EC50 [11] was 965 nM (active).

In the case of Cc1ccc(CNC(=O)CCNC(=O)c2ccco2)cc1, the EC50 [12] is reported as > 50 µM (not active).

For FC(F)(F)c1cccc(NC(S)=NC(c2ccccc2)c2ccccc2)c1, the EC50 [13] was 9.61 µM (active), the EC50 [14] was 2.22 µM (active) and the AC50 [4] was 26.2 µM (active). For the same molecule, the IC50 [15] was > 50 µM (not active), the IC50 [16] was 3.29 µM (active) and the AC50 [5] was 21.2 µM (active). The AC50 [6] was 7.17 µM (active).
